A word on the inhibition: it is the relative decrease from the control value, in per cent.

The values that follow come from US5391817A, “Biaryl phospholipase A2 inhibitors” (Bristol-Myers Squibb, priority 1993, dated 1995).

This assay has as its target T1, PLA2 (Homo sapiens, UniProt P14555).
T1 construct: The enzyme is isolated from human platelets; from tissue; host or cells: human platelets
T1 sequence (P14555 21-144): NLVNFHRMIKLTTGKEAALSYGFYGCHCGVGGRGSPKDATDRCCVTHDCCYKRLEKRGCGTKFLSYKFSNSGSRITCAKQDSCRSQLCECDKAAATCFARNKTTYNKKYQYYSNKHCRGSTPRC
In words: PLA2 Inhibition Assay (14C-oleate labeled E. coli membrane substrate). In kind it is biochemical. Conditions: 100 μM; PLA2 from human platelets; pH 7, 37° C. The protocol: The method used is similar to that reported by Franson, et al. [Jesse, R. L. and Franson R. C., Biochim. Biophys. Acta 575: 467-470 (1979); Franson, R. C., Patriarca, P., and Elsback, P., J. Lipid Res. 15: 380-388 (1974)]. The enzyme is isolated from human platelets. The substrate used consists of ^14 C-oleate labeled Escherichia coli membranes. E. coli cells are grown in the presence of ^14 C-oleic acid and then autoclaved to prepare the membranes.
Various concentrations of test compounds are preincubated with PLA2 (3.6 mg/mL in a buffer consisting of 25 mM HEPES (pH 7)), 150 mM NaCl, 5.0 mM CaCl2, and 10% DMSO (v/v, test compound solvent) at 37° C. for 7 minutes. The E. coli substrate is then added (0.1 mM phospholipid, 0,005 mCi ^14 C) and the reaction is then incubated at 37° C. for 30 minutes. The reaction is then terminated by the addition of 1.9 mL tetrahydrofuran (THF), and the entire solution is applied to a solid-phase extraction column (aminopropyl resin, Analytichem). The column is rinsed with an additional 1 mL of THF. The free fatty acid product of the reaction is then eluted from the column with 1 mL 2% acetic acid in THF and collected in a scintillation vial. The amount of free fatty acid product is determined by liquid scintillation counting. The amount of inhibition produced by the test compound is calculated by comparing the counts obtained in the presence of the compound to those obtained in its absence (solvent only). Background counts were determined by performing incubations in the absence of enzyme.
Percent inhibition is determined by the equation: [formula]
`C/C(=C\c1cccc(C(=O)O)c1-c1cccc(C(=O)O)c1)c1ccc2c(c1)C(C)(C)CCC2(C)C` [Structure 11, (E)-[2-(5,6,7,8-tetrahydro-5,5,8,8-tetramethyl-2-naphthalenyl)-1-propenyl]-[1,1'-biphenyl]-6,3'-dicarboxylic acid]: the inhibition at 100 µM stood at 80%.

In turn, `CCCCCCCCCCOc1ccc(COc2cccc(C(=O)O)c2-c2cccc(C(=O)O)c2)cc1OCCCCCCCCCC` [Structure 14a, 2-[(3,4-bisdecyloxy)phenyl]methoxy-[1,1'-biphenyl]-6,3'-dicarboxylic acid] gave an inhibition at 100 µM of 99%.

For `CC(C)=CCOc1ccc(COc2cccc(C(=O)O)c2-c2cccc(C(=O)O)c2)cc1OCC=C(C)C` [Structure 14b, 2-[3,4-bis(3-methyl-2-butenyloxy)phenyl]methoxy-[1,1'-biphenyl]-6,3'-dicarboxylic acid], the inhibition at 100 µM came out at 20%.

In turn, `CCCCCOc1ccc(COc2cccc(C(=O)O)c2-c2cccc(C(=O)O)c2)cc1OCCCCC` [Structure 14c, 2-[(3,4-bispentyloxy)phenyl]methoxy-[1,1'-biphenyl]-6,3'-dicarboxylic acid] displayed an inhibition at 100 µM of 53%.

In turn, `O=C(O)c1cccc(-c2c(OCc3ccc(OC4CCCC4)c(OC4CCCC4)c3)cccc2C(=O)O)c1` [Structure 14d, 2-[(3,4-biscyclopentyloxy)phenyl]methoxy-[1,1 'biphenyl]-6,3'-dicarboxylic acid] came in with an inhibition at 100 µM of 73%.

`CCCCCOc1ccc(COc2cccc(C(=O)O)c2-c2ccccc2)cc1O` [Structure 14e, 2-[(3-hydroxy-4-pentyloxy)phenyl]methoxy-[1,1 '-biphenyl]-6-carboxylic acid] displayed an inhibition at 100 µM of 34%.

`CCCCCOc1ccc(COc2cccc(C(=O)O)c2-c2ccccc2)cc1OC(C)=O` [Structure 14f, 2-[(3-acetoxy-4-pentyloxy)phenyl]methoxy-[1,1'-biphenyl]-6-carboxylic acid] showed an inhibition at 100 µM of 30%.

For `COc1cc(COc2cccc(C(=O)O)c2-c2ccccc2)ccc1C12CC3CC(CC(C3)C1)C2` [Structure 14g, 2-[4-(1-adamantyl)-3-methoxyphenyl]methoxy-[1,1'-biphenyl]-6-carboxylicacid], the inhibition at 100 µM was found to be 44%.

`COc1cc(COc2cccc(C(=O)O)c2-c2cccc(C(=O)O)c2)ccc1C12CC3CC(CC(C3)C1)C2` [Structure 14h, 2-[4-(1-adamantyl)-3-methoxyphenyl]methoxy-[1,1,-biphenyl]-6,3'-dicarboxylic acid] showed an inhibition at 100 µM of 62%.

`CCCCCOc1ccc(COc2cccc(C(=O)O)c2-c2ccccc2)cc1OCCCCC` [Structure 14i, 2-[(3,4-bispentyloxy)phenyl]methoxy-[1,1'-biphenyl]-6-carboxylic acid] registered an inhibition at 100 µM of 99%.

Take `CCCCCOc1ccc(COc2cccc(C(=O)O)c2-c2cccc(C(F)(F)F)c2)cc1OCCCCC` [Structure 14j, 2-[(3,4-bispentyloxy)phenyl]methoxy-[1,1'-biphenyl]-3'-trifluoromethyl-6-carboxylic acid]: the inhibition at 100 µM amounted to 98%.

Regarding `CCCCCCCCCCOc1ccc(COc2cccc(C(=O)O)c2-c2ccccc2)cc1` [Structure 14k, 2-[(4-decyloxy)phenyl]methoxy-[1,1'-biphenyl]-6-carboxylic acid], the inhibition at 100 µM was 99%.

On to `CCOC(=O)c1cccc(-c2c(OCc3ccc4c(c3)C(C)(C)CCC4(C)C)cccc2C(=O)O)c1` [Structure 14l, 2-(5,6,7,8-tetrahydro-5,5,8,8-tetramethyl-2-naphthalenyl)methoxy-[1,1'-biphenyl]-6,3'-dicarboxylic acid, 3'-ethyl ester], for which testing at 100 µM gave an inhibition of 54%.

As for `CC1(C)CCC(C)(C)c2cc(COc3cccc(C(=O)O)c3-c3cccc(C(=O)O)c3)ccc21` [Structure 14m, 2-(5,6,7,8-tetrahydro-5,5,8,8-tetramethyl-2-naphthalenyl)methoxy-[1,1'-biphenyl]-6,3'-dicarboxylic acid], the inhibition at 100 µM came to 54%.
